Square brackets hold non-standard residues; d marks the D form. Peptide text beside a SMILES is read from it. 3Pal = N[C@@H](Cc1cccnc1)C(=O)O; Aib = CC(C)(N)C(=O)O
How the values were obtained:
glucagon receptor = glucagon receptor (Homo sapiens, UniProt P47871); experiment: Luciferase-based glucagon assay (cAMP reporter, HEK293 cells); details: for in vitro efficacy / potency (in words) / EC50: luciferase-based glucagon assay; for EC50: read-out: EC50 [nM] (SDV), SDV in brackets; for % bioactivity of GCG: relative to native glucagon
Chain of glucagon receptor (P47871 26-477): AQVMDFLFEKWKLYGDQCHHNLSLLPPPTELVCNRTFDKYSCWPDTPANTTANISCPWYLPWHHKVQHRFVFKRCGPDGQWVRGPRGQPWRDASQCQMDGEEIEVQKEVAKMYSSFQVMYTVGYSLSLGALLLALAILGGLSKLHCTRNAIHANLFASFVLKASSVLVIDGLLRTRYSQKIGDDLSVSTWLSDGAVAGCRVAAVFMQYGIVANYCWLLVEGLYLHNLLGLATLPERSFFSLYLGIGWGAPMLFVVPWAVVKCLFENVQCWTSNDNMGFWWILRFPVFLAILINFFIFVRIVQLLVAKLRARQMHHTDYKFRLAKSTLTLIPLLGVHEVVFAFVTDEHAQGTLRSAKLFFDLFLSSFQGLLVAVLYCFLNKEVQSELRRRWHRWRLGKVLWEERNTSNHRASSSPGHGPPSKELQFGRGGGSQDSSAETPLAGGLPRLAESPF
Protocol: At the end of the incubation 100 microliters of LucLite luminescence substrate reagent (Perkin-Elmer, Wellesley, Mass.) were added to each well. […] The luminescent light output indicates activation of the luciferase reporter gene, which in turn is a measure of the activation of the receptor.

physchem = details: for solubility at 1 h: pH 7.4
Protocol: 1 or 5 mg of pre-lyophilized peptide in 2 mL Eppendorf tube was treated with 200-400 uL of phosphate buffer (PBS: 50 mM sodium phosphate, 150 mM of sodium chloride, pH7.4). Samples were then vortexed and sonicated for 10 min then equilibrated at RT for 1H, and then centrifuged at 10 krpms for 10 min Concentration of the peptides in obtained supernatant was determined by measuring UV absorbance at λ=280 nm. […] Concentration in aliquots was reassessed as previously with UV absorbance. Change in peptide concentration was evaluated after 48 h and 7 days of storage at 4° C.

In the case of `CSCC[C@H](NC(=O)[C@H](CC(C)C)NC(=O)[C@H](Cc1c[nH]c2ccccc12)NC(=O)[C@H](CCC(N)=O)NC(=O)[C@@H](NC(=O)[C@H](Cc1cccnc1)NC(=O)[C@H](CC(=O)O)NC(=O)[C@H](CCC(N)=O)NC(=O)[C@H](C)NC(=O)[C@H](CCCNC(=N)N)NC(=O)[C@H](CCCNC(=N)N)NC(=O)C(C)(C)NC(=O)[C@H](CC(=O)O)NC(=O)[C@H](CC(C)C)NC(=O)[C@H](Cc1cccnc1)NC(=O)[C@H](CCCCN)NC(=O)[C@H](CO)NC(=O)[C@H](Cc1cccnc1)NC(=O)[C@H](CC(=O)O)NC(=O)[C@H](CO)NC(=O)[C@@H](NC(=O)[C@H](Cc1cccnc1)NC(=O)[C@@H](NC(=O)CNC(=O)[C@H](CCC(N)=O)NC(=O)[C@H](CO)NC(=O)[C@@H](N)Cc1c[nH]cn1)[C@@H](C)O)[C@@H](C)O)C(C)C)C(=O)N[C@@H](CC(N)=O)C(=O)N[C@H](C(=O)O)[C@@H](C)O` [Compound 11, HSQGTXTSDXSKXLDZRRAQDXVQWLMNT] (H-HSQGT[3Pal]TSD[3Pal]SK[3Pal]LD[Aib]RRAQD[3Pal]VQWLMNT-OH; N-terminus and C-terminus assumed), the “in vitro efficacy / potency (in words)” value (glucagon receptor) is reported as “lower potency”, the EC50 (glucagon receptor) is reported as 2.33 nM and the “% bioactivity of GCG” value (glucagon receptor) is reported as 1%.

In the case of `CSCC[C@H](NC(=O)[C@H](CC(C)C)NC(=O)[C@H](Cc1c[nH]c2ccccc12)NC(=O)[C@H](CCC(N)=O)NC(=O)[C@@H](NC(=O)[C@H](Cc1ccccc1)NC(=O)[C@H](CC(=O)O)NC(=O)[C@H](CCC(N)=O)NC(=O)[C@H](C)NC(=O)[C@H](CCCNC(=N)N)NC(=O)[C@H](CCCNC(=N)N)NC(=O)C(C)(C)NC(=O)[C@H](CC(=O)O)NC(=O)[C@H](CC(C)C)NC(=O)[C@H](Cc1ccncc1)NC(=O)[C@H](CCCCN)NC(=O)[C@H](CO)NC(=O)[C@H](Cc1ccc(O)cc1)NC(=O)[C@H](CC(=O)O)NC(=O)[C@H](CO)NC(=O)[C@@H](NC(=O)[C@H](Cc1ccccc1)NC(=O)[C@@H](NC(=O)CNC(=O)[C@H](CCC(N)=O)NC(=O)[C@H](CO)NC(=O)[C@@H](N)Cc1c[nH]cn1)[C@@H](C)O)[C@@H](C)O)C(C)C)C(=O)N[C@@H](CC(N)=O)C(=O)N[C@H](C(=O)O)[C@@H](C)O` [Compound 6, HSQGTFTSDYSKULDZRRAQDFVQWLMNT], the solubility at 1 h (physchem) is reported as > 1000 µg/mL, the EC50 (glucagon receptor) is reported as 0.0339 nM and the “% bioactivity of GCG” value (glucagon receptor) is reported as 60%.

In the case of `CSCC[C@H](NC(=O)[C@H](CC(C)C)NC(=O)[C@H](Cc1c[nH]c2ccccc12)NC(=O)[C@H](CCC(N)=O)NC(=O)[C@@H](NC(=O)[C@H](Cc1ccccc1)NC(=O)[C@H](CC(=O)O)NC(=O)[C@H](CCC(N)=O)NC(=O)[C@H](C)NC(=O)[C@H](CCCNC(=N)N)NC(=O)[C@H](CCCNC(=N)N)NC(=O)C(C)(C)NC(=O)[C@H](CC(=O)O)NC(=O)[C@H](CC(C)C)NC(=O)[C@H](Cc1cccnc1)NC(=O)[C@H](CCCCN)NC(=O)[C@H](CO)NC(=O)[C@H](Cc1cccnc1)NC(=O)[C@H](CC(=O)O)NC(=O)[C@H](CO)NC(=O)[C@@H](NC(=O)[C@H](Cc1ccccc1)NC(=O)[C@@H](NC(=O)CNC(=O)[C@H](CCC(N)=O)NC(=O)[C@H](CO)NC(=O)[C@@H](N)Cc1c[nH]cn1)[C@@H](C)O)[C@@H](C)O)C(C)C)C(=O)N[C@@H](CC(N)=O)C(=O)N[C@H](C(=O)O)[C@@H](C)O` [Compound 7, HSQGTFTSDXSKXLDZRRAQDFVQWLMNT], the solubility (physchem; pH 7) is reported as > 10000 µg/mL, the solubility at 1 h (physchem) is reported as > 10000 µg/mL and the “in vitro efficacy / potency (in words)” value (glucagon receptor) is reported as “fully potent”. The EC50 (glucagon receptor) was 0.0359 nM and the “% bioactivity of GCG” value (glucagon receptor) was 57%.

With `CSCC[C@H](NC(=O)[C@H](CC(C)C)NC(=O)[C@H](Cc1c[nH]c2ccccc12)NC(=O)[C@H](CCC(N)=O)NC(=O)[C@@H](NC(=O)[C@H](Cc1cccnc1)NC(=O)[C@H](CC(=O)O)NC(=O)[C@H](CCC(N)=O)NC(=O)[C@H](C)NC(=O)[C@H](CCCNC(=N)N)NC(=O)[C@H](CCCNC(=N)N)NC(=O)C(C)(C)NC(=O)[C@H](CC(=O)O)NC(=O)[C@H](CC(C)C)NC(=O)[C@H](Cc1cccnc1)NC(=O)[C@H](CCCCN)NC(=O)[C@H](CO)NC(=O)[C@H](Cc1cccnc1)NC(=O)[C@H](CC(=O)O)NC(=O)[C@H](CO)NC(=O)[C@@H](NC(=O)[C@H](Cc1cccnc1)NC(=O)[C@@H](NC(=O)CNC(=O)[C@H](CCC(N)=O)NC(=O)[C@H](CO)NC(=O)[C@@H](N)Cc1cnc[nH]1)[C@@H](C)O)[C@@H](C)O)C(C)C)C(=O)N[C@@H](CC(N)=O)C(=O)N[C@H](C(=O)O)[C@@H](C)O` [Compound 11, HSQGTXTSDXSKXLDZRRAQDXVQWLMNT] (H-HSQGT[3Pal]TSD[3Pal]SK[3Pal]LD[Aib]RRAQD[3Pal]VQWLMNT-OH) the solubility at 1 h (physchem) was > 10000 µg/mL.

For `CSCC[C@H](NC(=O)[C@H](CC(C)C)NC(=O)[C@H](Cc1c[nH]c2ccccc12)NC(=O)[C@H](CCC(N)=O)NC(=O)[C@@H](NC(=O)[C@H](Cc1ccccc1)NC(=O)[C@H](CC(=O)O)NC(=O)[C@H](CCC(N)=O)NC(=O)[C@H](C)NC(=O)[C@H](CCCNC(=N)N)NC(=O)[C@H](CCCNC(=N)N)NC(=O)C(C)(C)NC(=O)[C@H](CC(=O)O)NC(=O)[C@H](CC(C)C)NC(=O)[C@H](Cc1ccncc1)NC(=O)[C@H](CCCCN)NC(=O)[C@H](CO)NC(=O)[C@H](Cc1ccncc1)NC(=O)[C@H](CC(=O)O)NC(=O)[C@H](CO)NC(=O)[C@@H](NC(=O)[C@H](Cc1ccncc1)NC(=O)[C@@H](NC(=O)CNC(=O)[C@H](CCC(N)=O)NC(=O)[C@H](CO)NC(=O)[C@@H](N)Cc1c[nH]cn1)[C@@H](C)O)[C@@H](C)O)C(C)C)C(=O)N[C@@H](CC(N)=O)C(=O)N[C@H](C(=O)O)[C@@H](C)O` [Compound 10, HSQGTUTSDUSKULDZRRAQDFVQWLMNT], the solubility at 1 h (physchem) was > 10000 µg/mL, the EC50 (glucagon receptor) was 0.0843 nM and the “% bioactivity of GCG” value (glucagon receptor) was 24%.

For `CSCC[C@H](NC(=O)[C@H](CC(C)C)NC(=O)[C@H](Cc1c[nH]c2ccccc12)NC(=O)[C@H](CCC(N)=O)NC(=O)[C@@H](NC(=O)[C@H](Cc1ccccc1)NC(=O)[C@H](CC(=O)O)NC(=O)[C@H](CCC(N)=O)NC(=O)[C@H](C)NC(=O)[C@H](CCCNC(=N)N)NC(=O)[C@H](CCCNC(=N)N)NC(=O)C(C)(C)NC(=O)[C@H](CC(=O)O)NC(=O)[C@H](CC(C)C)NC(=O)[C@H](Cc1ccncc1)NC(=O)[C@H](CCCCN)NC(=O)[C@H](CO)NC(=O)[C@H](Cc1ccncc1)NC(=O)[C@H](CC(=O)O)NC(=O)[C@H](CO)NC(=O)[C@@H](NC(=O)[C@H](Cc1ccccc1)NC(=O)[C@@H](NC(=O)CNC(=O)[C@H](CCC(N)=O)NC(=O)[C@H](CO)NC(=O)[C@@H](N)Cc1c[nH]cn1)[C@@H](C)O)[C@@H](C)O)C(C)C)C(=O)N[C@@H](CC(N)=O)C(=O)N[C@H](C(=O)O)[C@@H](C)O` [Compound 8, HSQGTFTSDUSKULDZRRAQDFVQWLMNT], the solubility at 1 h (physchem) was > 10000 µg/mL, the EC50 (glucagon receptor) was 0.0309 nM and the “% bioactivity of GCG” value (glucagon receptor) was 66%.

With `CSCC[C@H](NC(=O)[C@H](CC(C)C)NC(=O)[C@H](Cc1c[nH]c2ccccc12)NC(=O)[C@H](CCC(N)=O)NC(=O)[C@@H](NC(=O)[C@H](Cc1ccccc1)NC(=O)[C@H](CC(=O)O)NC(=O)[C@H](CCC(N)=O)NC(=O)[C@H](C)NC(=O)[C@H](CCCNC(=N)N)NC(=O)[C@H](CCCNC(=N)N)NC(=O)C(C)(C)NC(=O)[C@H](CC(=O)O)NC(=O)[C@H](CC(C)C)NC(=O)[C@H](Cc1cccnc1)NC(=O)[C@H](CCCCN)NC(=O)[C@H](CO)NC(=O)[C@H](Cc1ccc(O)cc1)NC(=O)[C@H](CC(=O)O)NC(=O)[C@H](CO)NC(=O)[C@@H](NC(=O)[C@H](Cc1ccccc1)NC(=O)[C@@H](NC(=O)CNC(=O)[C@H](CCC(N)=O)NC(=O)[C@H](CO)NC(=O)[C@@H](N)Cc1c[nH]cn1)[C@@H](C)O)[C@@H](C)O)C(C)C)C(=O)N[C@@H](CC(N)=O)C(=O)N[C@H](C(=O)O)[C@@H](C)O` [Compound 5, HSQGTFTSDYSKXLDZRRAQDFVQWLMNT] the solubility at 1 h (physchem) was > 1000 µg/mL, the EC50 (glucagon receptor) was 0.0379 nM and the “% bioactivity of GCG” value (glucagon receptor) was 54%.

With `CSCC[C@H](NC(=O)[C@H](CC(C)C)NC(=O)[C@H](Cc1c[nH]c2ccccc12)NC(=O)[C@H](CCC(N)=O)NC(=O)[C@@H](NC(=O)[C@H](Cc1ccccc1)NC(=O)[C@H](CC(=O)O)NC(=O)[C@H](CCC(N)=O)NC(=O)[C@H](C)NC(=O)[C@H](CCCNC(=N)N)NC(=O)[C@H](CCCNC(=N)N)NC(=O)C(C)(C)NC(=O)[C@H](CC(=O)O)NC(=O)[C@H](CC(C)C)NC(=O)[C@H](Cc1ccc(O)cc1)NC(=O)[C@H](CCCCN)NC(=O)[C@H](CO)NC(=O)[C@H](Cc1cccnc1)NC(=O)[C@H](CC(=O)O)NC(=O)[C@H](CO)NC(=O)[C@@H](NC(=O)[C@H](Cc1ccccc1)NC(=O)[C@@H](NC(=O)CNC(=O)[C@H](CCC(N)=O)NC(=O)[C@H](CO)NC(=O)[C@@H](N)Cc1c[nH]cn1)[C@@H](C)O)[C@@H](C)O)C(C)C)C(=O)N[C@@H](CC(N)=O)C(=O)N[C@H](C(=O)O)[C@@H](C)O` [Compound 4, HSQGTFTSDXSKYLDZRRAQDFVQWLMNT] the solubility at 1 h (physchem) was > 1000 µg/mL, the EC50 (glucagon receptor) was 0.0268 nM and the “% bioactivity of GCG” value (glucagon receptor) was 76%.

With `CSCC[C@H](NC(=O)[C@H](CC(C)C)NC(=O)[C@H](Cc1c[nH]c2ccccc12)NC(=O)[C@H](CCC(N)=O)NC(=O)[C@@H](NC(=O)[C@H](Cc1ccccc1)NC(=O)[C@H](CC(=O)O)NC(=O)[C@H](CCC(N)=O)NC(=O)[C@H](C)NC(=O)[C@H](CCCNC(=N)N)NC(=O)[C@H](CCCNC(=N)N)NC(=O)C(C)(C)NC(=O)[C@H](CC(=O)O)NC(=O)[C@H](CC(C)C)NC(=O)[C@H](Cc1ccc(O)cc1)NC(=O)[C@H](CCCCN)NC(=O)[C@H](CO)NC(=O)[C@H](Cc1ccc(O)cc1)NC(=O)[C@H](CC(=O)O)NC(=O)[C@H](CO)NC(=O)[C@@H](NC(=O)[C@H](Cc1cccnc1)NC(=O)[C@@H](NC(=O)CNC(=O)[C@H](CCC(N)=O)NC(=O)[C@H](CO)NC(=O)[C@@H](N)Cc1c[nH]cn1)[C@@H](C)O)[C@@H](C)O)C(C)C)C(=O)N[C@@H](CC(N)=O)C(=O)N[C@H](C(=O)O)[C@@H](C)O` [Compound 3, HSQGTXTSDYSKYLDZRRAQDFVQWLMNT] the solubility at 1 h (physchem) was > 1000 µg/mL, the EC50 (glucagon receptor) was 0.017 nM and the “% bioactivity of GCG” value (glucagon receptor) was 119%.

Source: patent US10683334B2 (INDIANA UNIVERSITY RESEARCH AND TECHNOLOGY CORPORATION, priority 2016, dated 2020)
